Experiments:
[1] = molecular target: AD brain-enriched PHF (Homo sapiens, UniProt P10636); assay: Assay 2 (filter trap): [3H]RefA radio-binding competition assay and Ki on PHF; details: [^3H]RefA 10 nM; for inhibition at 2.5 µM: compound 2.5 μM, no Ki determined; for Ki: PHF diluted 1/80, compound 0.12 nM to 50 μM
Protocol: Displacement of [^3H]RefA by Compounds of this Invention
50 g of frontal lobe tissue from post-mortem brain of an Alzheimer's disease (AD) patient were obtained from the London Tissue Bank. The patient was a […] and died […]. The brain sample was collected 5 hours post-mortem and characterized for Braak disease stage (Braak, H.; Braak, E. Acta Neuropathol., 1991, 82, 239-259) as stage VI. For the enrichment of PHF's, around 15 g of the AD human brain was thawed on ice and homogenized with 50 ml of homogenization buffer [0.75 M NaCl in RAB buffer (100 mM 2-(N-morpholino) ethanesulfonic acid (MES), 1 mM EGTA, 0.5 mM MgSO4, 2 mM DTT, pH 6.8) supplemented with protease inhibitors (Complete; Roche 11697498001) in a glass Dounce homogenizer. The homogenate was then incubated at 4° C. for 20 min to let any residual microtubules depolymerize, before the homogenate was transferred into polycarbonate centrifuge bottles (16×76 mm; Beckman 355603) and centrifuged at 11,000 g (12,700 RPM) in an ultracentrifuge (Beckman, XL100K) for 20 min at 4° C. using the pre-cooled 70.1 rotor (Beckman, 342184). Pellets were kept on ice. Supernatants were pooled into polycarbonate bottles and centrifuged again at 100,000 g (38,000 RPM) for 1 h at 4° C. in the 70.1 Ti rotor to isolate PHF-rich pellets, whereas soluble tau remained in the supernatants. The pellets from the first and second centrifugations were re-suspended in 120 mL of extraction buffer [10 mM Tris-HCl pH 7.4, 10% sucrose, 0.85 M NaCl, 1% protease inhibitor (Calbiochem 539131), 1 mM EGTA, 1% phosphatase inhibitor (Sigma P5726 and P0044)]. The solution was then transferred into polycarbonate centrifuge bottles (16×76 mm; Beckman 355603) and centrifuged at 15,000 g (14,800 RPM) in an ultracentrifuge (Beckman, XL100K) for 20 min at 4° C. using the 70.1 Ti rotor. In the presence of 10% sucrose and at low speed centrifugation, most PHF remained in the supernatant whereas intact or fragmented NFTs and larger PHF aggregates were pelleted. The pellets were discarded. 20% Sarkosyl (Sigma L7414-10ML) was added to the supernatants to a final concentration of 1% and stirred at room temperature for 1 h. This solution was then centrifuged into polycarbonate bottles at 100,000 g (38,000 RPM) for 1 h at 4° C. in the 70.1 Ti rotor, and the pellets containing PHF-rich material were re-suspended in a total final volume of 1.5 mL of PBS, aliquoted and stored at −80° C.
[^3H]RefA Radio-Binding Competition Assay
AD brain-enriched PHF diluted 1/80 were incubated in the presence of [^3H]RefA at 10 nM and the example compounds of this invention at 2.5 μM (250× excess), for 45 minutes at 37° C. Samples were then analyzed by on GF/B filter plates as described above (in the section “[^3H]RefA radio-binding assay and determination of the dissociation constant (Kd)). Non-specific signal was determined again with an excess of un-labeled RefA and specific binding calculated by subtracting the non-specific signal from the total signal. Competition was calculated as percent, where 0% was defined as the specific binding in the presence of vehicle (2.8% DMSO in PBS) and 100% as the values obtained in the presence of excess cold RefA. Similar assays were performed to determine the competition of the cold compounds on [^3H]RefA on in vitro aggregated recombinant human tau or Abeta1-42 For both recombinant proteins, 20 μg/mL of aggregates were incubated with 10 nM of [^3H]RefA for recombinant human tau or 80 nM of [^3H]RefA for recombinant human Abeta1-42.
Determination of the Binding Affinity (Ki)
Samples were then analyzed on GF/B filter plates as described above and Ki values calculated using Prism V5 (GraphPad).

[2] = test system: tau tangles/Aβ plaques on AD brain sections; assay: Assay 1: direct staining of human Alzheimer's disease brain sections (fluorescence); type: binding; parameters: key to Direct staining of tau tangles/Aβ plaques on AD brain sections at 100 μM / Direct staining of tau tangles on AD brain sections at 100 μM / Direct staining of Aβ plaques on AD brain sections at 100 μM / Direct staining of tau tangles on AD brain sections (footnote a: at 250 μM): − (No); +++ (strong); ++ (good); + (weak); details: for Direct staining of tau tangles on AD brain sections at 100 μM / Direct staining of tau tangles/Aβ plaques on AD brain sections at 100 μM: 100 μM compound; for Direct staining of tau tangles/Aβ plaques on AD brain sections at 100 μM: human AD brain sections, fluorescence, cell does not say tangles or plaques
Protocol: Assay 1 (Fluorescence Based Assay):
(§1) Direct Binding of Compounds of this Invention to Human Alzheimer's Disease Brain Sections and/or Displacement of RefA and Compound B
(§2) Frozen sections with a thickness of […] from the amygdala of donors diagnosed with Braak stage V-VI Alzheimer's Disease (Braak, H.; Braak, E. Acta Neuropathol., 1991, 82, 239-259), were purchased from a commercial provider (Tissue Solutions) and kept at −80° C. until use.
Direct Staining of Human Alzheimer's Disease Brain Sections
Brain sections were encircled with pap pen liquid blocker to reduce the volume of solution for the different incubations. Sections were fixed for 15 min at 4° C. with 4% paraformaldehyde and washed three times 5 minutes with PBS at room temperature. […] To reduce the auto-fluorescence of the tissue, the sections were incubated in a solution of 0.1% Sudan Black (Sigma 199664) in 70% ethanol for 15 min at room temperature in the dark, washed four times for 5 minutes with PBS, and mounted using ProLong Gold Antifade reagent (Invitrogen P36930). Sections were then analyzed on the Nikon Eclipse Ti microscope to detect staining and imaged using Nikon DS-Fi2 camera and NIS-Element AR4.13.1 software.

[3] = test system: tau tangles on AD brain section; assay: Assay 1: displacement of RefA on human AD brain sections (fluorescence); type: binding; details: for Selectivity (tau/Abeta): ratio of competition on tau tangles to competition on Aβ plaques
Protocol: as §1, §2
Displacement of RefA and Compound B
Brain sections were mainly treated as described above. Test compounds were, however, incubated on the section at 250 μM in 50% ethanol for 20 min at room temperature, and then directly incubated with the fluorescent reference compounds RefA and Compound B, each at 1 μM in 50% ethanol for 20 min at room temperature. RefA and Compound B stainings were visualized using the 470 nm and 365 nm excitation filters, respectively. Images were acquired, and tangles and plaques quantified using the NIS-Element software. Only those compounds not directly staining tangles or plaques at the same wavelengths as RefA and Compound B were tested in the displacement assay.
Structure of RefA (Tago et al., J. Label. Compd. Radiopharm. 2013, DOI: 10.1002/jlcr.3133)

[4] = test system: Aβ plaques on AD brain section; assay: Assay 1: displacement of Compound B on human AD brain sections (fluorescence); type: binding
Protocol: Direct Binding of Compounds of this Invention to Human Alzheimer's Disease Brain Sections and/or Displacement of RefA and Compound B Frozen sections with a thickness of […] from the amygdala of donors diagnosed with Braak stage V-VI Alzheimer's Disease (Braak, H.; Braak, E. Acta Neuropathol., 1991, 82, 239-259), were purchased from a commercial provider (Tissue Solutions) and kept at -80° C. until use. Displacement of RefA and Compound B Brain sections were mainly treated as described above. Test compounds were, however, incubated on the section at 250 μM in 50% ethanol for 20 min at room temperature, and then directly incubated with the fluorescent reference compounds RefA and Compound B, each at 1 μM in 50% ethanol for 20 min at room temperature. RefA and Compound B stainings were visualized using the 470 nm and 365 nm excitation filters, respectively. Images were acquired, and tangles and plaques quantified using the NIS-Element software. Only those compounds not directly staining tangles or plaques at the same wavelengths as RefA and Compound B were tested in the displacement assay. Structure of Compound B (prepared by a similar procedure described for […] in WO2010/011964): […]

Sequence of AD brain-enriched PHF (P10636 623-708 limits assumed): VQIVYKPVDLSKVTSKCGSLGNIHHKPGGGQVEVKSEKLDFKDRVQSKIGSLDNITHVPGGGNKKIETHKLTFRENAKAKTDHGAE

inhibition at 2.5 µM [1] [%]	Competition on AD brain section tau tangles (1 μM RefA vs. 250 μM compound) [3]	Competition on AD brain section Aβ plaques (1 μM Compound B vs 250 μM compound) [4] [%]	SMILES	Direct staining of tau tangles on AD brain sections at 100 μM ([2]; tangles)	Direct staining of tau tangles/Aβ plaques on AD brain sections at 100 μM [2]	further results
< 50			Cn1c2c(c3ccc(Nc4ccc(F)c(F)c4)nc31)C(=O)N(CCCN)CC2 [212 Step F]			
< 50			Cn1c2ccncc2c2ccc(Nc3ccc(F)c(C#N)c3)nc21 [Example 6]	+++ (tangles)		
< 50			Cn1c2ccncc2c2ccc(Nc3cc(N4CCOCC4)ccc3F)nc21 [Example 10]		−	
			Cn1c2ccncc2c2ccc(Nc3ccc(OC(F)F)nc3)nc21 [Example 11]	++ (tangles)		Ki [1]: 188 nM
			Cn1c2ccncc2c2ccc(Nc3cccc(OC(F)(F)F)c3)nc21 [Example 13]			Ki [1]: 169 nM
			Cn1c2ccncc2c2ccc(Nc3cccc(F)c3N3CCOCC3)nc21 [Example 14]			Ki [1]: 371 nM
< 50			Cn1c2ccncc2c2ccc(Nc3c(F)cccc3N3CCOCC3)nc21 [Example 15]			
< 50			Cn1c2ccncc2c2ccc(Nc3cc(F)ccc3N3CCOCC3)nc21 [Example 16]		−	
< 50			Cn1c2ccncc2c2ccc(Nc3ccc(C#N)c(F)c3)nc21 [Example 17]	+++ (tangles)		
	88%	−21	Cn1c2ccncc2c2ccc(Nc3cccc(OCCF)n3)nc21 [Example 44]	++ (tangles)		Selectivity (tau/Abeta) [3]: >88 fold
	93%.	−9	Cn1c2ccncc2c2ccc(Nc3cncc(OCCF)c3)nc21 [Example 59]	+++ (tangles)		Selectivity (tau/Abeta) [3]: >93 fold
		35	Cn1c2ccncc2c2ccc(Nc3cncc(OCCOCCF)c3)nc21 [Example 65]	++ (tangles)		
		59	Cn1c2ccncc2c2ccc(Nc3cccc(OCCOCCF)c3)nc21 [Example 95]	++ (tangles)		
		18	Cn1c2ccncc2c2ccc(Nc3cccc(OCCOCCOCCF)c3)nc21 [Example 96]	++ (tangles)		
	18%	3	Cn1c2ccncc2c2ccc(N3CCOC[C@H]3CF)nc21 [Example 150]			Direct staining of tau tangles on AD brain sections (footnote a: at 250 μM) ([2]; 250 μM compound, tangles): + (tangles)^a
	99%	42	Cn1c2ccncc2c2ccc(N3CCC(CCF)CC3)nc21 [Example 151]		−	Selectivity (tau/Abeta) [3]: ~2.4-fold
< 50	20%		CN1CCc2c(c3ccc(Nc4ccc5c(c4)OCO5)nc3n2C)C1=O [Example 170]		−	
< 50			COc1cc(Nc2ccc3c4c(n(C)c3n2)CCN(C)C4=O)ccc1C [Example 171]		−	
< 50	16%		CN1CCc2c(c3ccc(Nc4ccc5ncn(C)c5c4)nc3n2C)C1=O [Example 172]		−	
< 50			Cn1c2c(c3ccc(Nc4ccc(F)c(F)c4)nc31)C(=O)NCC2 [Example 174]		−	

Reference: patent US10662193B2, “Carbazole and carboline compounds for use in the diagnosis, treatment, alleviation or prevention of disorders associated with amyloid or amyloid-like proteins” (AC IMMUNE SA, priority 2014, dated 2020)
